# ChEMBL document CHEMBL6109133, “Towards P2X4 Positron Emission Tomography Tracing” (J Med Chem, 2025)
# Key:
# P2X purinoceptor 4 = molecular target: T1, P2X purinoceptor 4 (Homo sapiens, UniProt Q99571); test: Antagonist activity at human P2X4 receptor
# T1 sequence (Q99571 whole entry): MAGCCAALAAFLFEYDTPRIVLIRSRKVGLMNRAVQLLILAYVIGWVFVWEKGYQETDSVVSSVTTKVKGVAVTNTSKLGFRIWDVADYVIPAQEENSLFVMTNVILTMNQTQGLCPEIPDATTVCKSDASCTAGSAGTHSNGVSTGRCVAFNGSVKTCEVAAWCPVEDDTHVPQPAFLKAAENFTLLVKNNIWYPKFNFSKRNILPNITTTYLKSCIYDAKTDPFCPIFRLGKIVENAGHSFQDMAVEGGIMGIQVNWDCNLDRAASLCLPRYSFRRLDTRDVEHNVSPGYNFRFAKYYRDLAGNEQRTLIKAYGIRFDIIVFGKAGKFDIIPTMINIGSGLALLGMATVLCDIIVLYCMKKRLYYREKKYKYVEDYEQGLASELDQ
# [1] = Plasma protein binding in mouse; type: ADME, cell-free; conditions: read-out: PPB
SMILES,IC50 (P2X purinoceptor 4) [µM],fraction unbound [1]
Cc1cc(F)ccc1CS(=O)(=O)Nc1ccc(N2C(=O)CC(=O)Nc3c2ccc2ccccc32)cc1,0.008,< 0.02
Cc1cc(F)ccc1S(=O)(=O)Nc1ccc(N2C(=O)CC(=O)Nc3c2ccc2ccccc32)cc1,0.064,< 0.02
